Literature values as cited in US20060078583A1, “Device for delivering an anti-microbial composition” (priority 2004, published 2006).

What was measured:
rhinovirus = settings: on skin
[1] = test system: rhinoviral infections (colds); settings: subjects who used iodine products

## II [iodine]
rhinovirus
  residual anti-rhinoviral activity: provides residual anti-rhinoviral activity on skin
[1]
  number of colds versus placebo users: significantly fewer colds than placebo users
